From patent US20220071989A1, “METHODS OF TREATING NEGATIVE SYMPTOMS OF SCHIZOPHRENIA USING DEUTERATED DEXTROMETHORPHAN AND QUINIDINE” (AVANIR PHARMACEUTICALS, INC., priority 2019, published 2022)
Where a name gives a salt, the structure may show the parent alone.

Columns and labels:
[1] = PK parameters (Cmax, AUC) estimated from measured drug concentrations with a PK model (Example 1); type: in vivo, human
[2] = Plasma concentrations of d6-DM, d3-DX, d3-3-MM and Q (Example 1); conditions: 2 to 3 hours after morning dose
Description: Plasma samples were separated by centrifugation and then frozen at −20° C. until assayed at the analytical unit.

[3] = Visit 4 (Week 6), d6-DM/Q/d6-DM/Q, All metabolizer types
[4] = Visit 4 (Week 6), d6-DM/Q/d6-DM/Q, Extensive metabolizer subgroup
[5] = Visit 4 (Week 6), d6-DM/Q/d6-DM/Q, Intermediate metabolizer subgroup
[6] = Visit 4 (Week 6), d6-DM/Q/d6-DM/Q, Poor metabolizer subgroup
[7] = Visit 4 (Week 6), d6-DM/Q/d6-DM/Q, Ultra-Rapid metabolizer subgroup
[8] = Visit 7 (Week 12), d6-DM/Q/d6-DM/Q, All metabolizer types
[9] = Visit 7 (Week 12), d6-DM/Q/d6-DM/Q, Extensive metabolizer subgroup
[10] = Visit 7 (Week 12), d6-DM/Q/d6-DM/Q, Intermediate metabolizer subgroup
[11] = Visit 7 (Week 12), d6-DM/Q/d6-DM/Q, Ultra-Rapid metabolizer subgroup
[12] = Visit 7 (Week 12), placebo/d6-DM/Q, All metabolizer types
[13] = Visit 7 (Week 12), placebo/d6-DM/Q, Extensive metabolizer subgroup
[14] = Visit 7 (Week 12), placebo/d6-DM/Q, Intermediate metabolizer subgroup
[15] = Visit 7 (Week 12), placebo/d6-DM/Q, Poor metabolizer subgroup
[16] = d6-DM/Q/d6-DM/Q group at Visit 4 (Week 6)
[17] = d6-DM/Q/d6-DM/Q group at Visit 7 (Week 12)
[18] = placebo/d6-DM/Q group at Visit 7 (Week 12)

## [2H]C([2H])([2H])N1CCC23CCCCC2C1Cc1ccc(O)cc13 (centres unmarked) [d3-DX, deuterated (d3)-dextrorphan]
[1]; [3]
  AUC, mean (SD): 1142.3 (378.08) h × ng/mL
  AUC, median (min, max): 1083.8 (506, 2091) h × ng/mL
  Cmax, mean (SD): 127.4 (50.25) ng/mL
  Cmax, median (min, max): 121.6 (56, 332) ng/mL
[1]; [4]
  AUC, mean (SD): 1235.3 (389.01) h × ng/mL
  AUC, median (min, max): 1119.6 (729, 2091) h × ng/mL
  Cmax, mean (SD): 144.6 (56.42) ng/mL
  Cmax, median (min, max): 134.9 (72, 332) ng/mL
[1]; [5]
  AUC, mean (SD): 1044.8 (340.96) h × ng/mL
  AUC, median (min, max): 991.6 (506, 1847) h × ng/mL
  Cmax, mean (SD): 111.5 (38.83) ng/mL
  Cmax, median (min, max): 101.2 (56, 195) ng/mL
[1]; [6]
  AUC, mean (SD): 887.2 (na) h × ng/mL
  AUC, median (min, max): 887.2 (887, 887) h × ng/mL
  Cmax, mean (SD): 87.2 (na) ng/mL
  Cmax, median (min, max): 87.2 (87, 87) ng/mL
[1]; [7]
  AUC, mean (SD): 1774.7 (na) h × ng/mL
  AUC, median (min, max): 1774.7 (1775, 1775) h × ng/mL
  Cmax, mean (SD): 193.1 (na) ng/mL
  Cmax, median (min, max): 193.1 (193, 193) ng/mL
[1]; [8]
  AUC, mean (SD): 1142.8 (378.46) h × ng/mL
  AUC, median (min, max): 1087.1 (511, 2115) h × ng/mL
  Cmax, mean (SD): 126.8 (50.32) ng/mL
  Cmax, median (min, max): 123.0 (57, 337) ng/mL
[1]; [9]
  AUC, mean (SD): 1243.6 (394.70) h × ng/mL
  AUC, median (min, max): 1123.4 (740, 2115) h × ng/mL
  Cmax, mean (SD): 144.9 (56.98) ng/mL
  Cmax, median (min, max): 133.9 (76, 337) ng/mL
[1]; [10]
  AUC, mean (SD): 1015.0 (312.22) h × ng/mL
  AUC, median (min, max): 1000.2 (511, 1833) h × ng/mL
  Cmax, mean (SD): 106.3 (33.76) ng/mL
  Cmax, median (min, max): 100.6 (57, 187) ng/mL
[1]; [11]
  AUC, mean (SD): 1783.3 (na) h × ng/mL
  AUC, median (min, max): 1783.3 (1783, 1783) h × ng/mL
  Cmax, mean (SD): 190.3 (na) ng/mL
  Cmax, median (min, max): 190.3 (190, 190) ng/mL
[1]; [12]
  AUC, mean (SD): 1181.4 (515.68) h × ng/mL
  AUC, median (min, max): 1085.8 (651, 3622) h × ng/mL
  Cmax, mean (SD): 126.6 (49.10) ng/mL
  Cmax, median (min, max): 116.4 (65, 318) ng/mL
[1]; [13]
  AUC, mean (SD): 1323.8 (623.07) h × ng/mL
  AUC, median (min, max): 1131.7 (750, 3622) h × ng/mL
  Cmax, mean (SD): 142.5 (56.08) ng/mL
  Cmax, median (min, max): 130.9 (80, 318) ng/mL
[1]; [14]
  AUC, mean (SD): 1014.1 (202.39) h × ng/mL
  AUC, median (min, max): 940.4 (745, 1367) h × ng/mL
  Cmax, mean (SD): 108.0 (24.89) ng/mL
  Cmax, median (min, max): 105.2 (76, 168) ng/mL
[1]; [15]
  AUC, mean (SD): 651.2 (na) h × ng/mL
  AUC, median (min, max): 651.2 (651, 651) h × ng/mL
  Cmax, mean (SD): 65.1 (na) ng/mL
  Cmax, median (min, max): 65.1 (65, 65) ng/mL
[2]; [16]
  mean plasma concentration, all patients: 101.2 ng/mL
[2]; [17]
  mean plasma concentration, all patients: 111.6 ng/mL
[2]; [18]
  mean plasma concentration, all patients: 124.5 ng/mL

## [2H]C([2H])([2H])Oc1ccc2c(c1)[C@]13CCCC[C@@H]1[C@H](C2)N(C([2H])([2H])[2H])CC3 [d6-DM, deuterated [d6]-dextromethorphan hydrobromide]
[1]; [3]
  AUC, mean (SD): 456.2 (362.05) h × ng/mL
  AUC, median (min, max): 355.4 (73, 1793) h × ng/mL
  Cmax, mean (SD): 51.6 (38.53) ng/mL
  Cmax, median (min, max): 40.0 (8, 192) ng/mL
[1]; [4]
  AUC, mean (SD): 333.3 (255.24) h × ng/mL
  AUC, median (min, max): 271.9 (73, 1183) h × ng/mL
  Cmax, mean (SD): 38.2 (27.99) ng/mL
  Cmax, median (min, max): 32.2 (8, 130) ng/mL
[1]; [5]
  AUC, mean (SD): 573.2 (418.66) h × ng/mL
  AUC, median (min, max): 401.7 (139, 1793) h × ng/mL
  Cmax, mean (SD): 63.9 (44.15) ng/mL
  Cmax, median (min, max): 48.1 (17, 192) ng/mL
[1]; [6]
  AUC, mean (SD): 204.6 (na) h × ng/mL
  AUC, median (min, max): 204.6 (205, 205) h × ng/mL
  Cmax, mean (SD): 28.7 (na) ng/mL
  Cmax, median (min, max): 28.7 (29, 29) ng/mL
[1]; [7]
  AUC, mean (SD): 468.0 (na) h × ng/mL
  AUC, median (min, max): 468.0 (468, 468) h × ng/mL
  Cmax, mean (SD): 58.6 (na) ng/mL
  Cmax, median (min, max): 58.6 (59, 59) ng/mL
[1]; [8]
  AUC, mean (SD): 473.4 (375.01) h × ng/mL
  AUC, median (min, max): 369.4 (70, 1810) h × ng/mL
  Cmax, mean (SD): 53.4 (40.09) ng/mL
  Cmax, median (min, max): 42.3 (8, 194) ng/mL
[1]; [9]
  AUC, mean (SD): 336.7 (244.01) h × ng/mL
  AUC, median (min, max): 288.9 (70, 1127) h × ng/mL
  Cmax, mean (SD): 38.7 (26.74) ng/mL
  Cmax, median (min, max): 34.1 (8, 124) ng/mL
[1]; [10]
  AUC, mean (SD): 601.9 (442.90) h × ng/mL
  AUC, median (min, max): 375.7 (132, 1810) h × ng/mL
  Cmax, mean (SD): 67.0 (46.98) ng/mL
  Cmax, median (min, max): 45.9 (16, 194) ng/mL
[1]; [11]
  AUC, mean (SD): 498.8 (na) h × ng/mL
  AUC, median (min, max): 498.8 (499, 499) h × ng/mL
  Cmax, mean (SD): 62.1 (na) ng/mL
  Cmax, median (min, max): 62.1 (62, 62) ng/mL
[1]; [12]
  AUC, mean (SD): 439.6 (248.41) h × ng/mL
  AUC, median (min, max): 413.0 (53, 1081) h × ng/mL
  Cmax, mean (SD): 50.8 (27.44) ng/mL
  Cmax, median (min, max): 47.7 (7, 121) ng/mL
[1]; [13]
  AUC, mean (SD): 404.3 (239.02) h × ng/mL
  AUC, median (min, max): 368.0 (53, 1081) h × ng/mL
  Cmax, mean (SD): 47.2 (26.57) ng/mL
  Cmax, median (min, max): 44.2 (7, 121) ng/mL
[1]; [14]
  AUC, mean (SD): 492.1 (271.83) h × ng/mL
  AUC, median (min, max): 492.9 (124, 945) h × ng/mL
  Cmax, mean (SD): 56.2 (29.94) ng/mL
  Cmax, median (min, max): 56.1 (15, 106) ng/mL
[1]; [15]
  AUC, mean (SD): 427.4 (na) h × ng/mL
  AUC, median (min, max): 427.4 (427, 427) h × ng/mL
  Cmax, mean (SD): 47.9 (na) ng/mL
  Cmax, median (min, max): 47.9 (48, 48) ng/mL
[2]; [16]
  mean plasma concentration, all patients: 49.7 ng/mL
[2]; [17]
  mean plasma concentration, all patients: 53.2 ng/mL
[2]; [18]
  mean plasma concentration, all patients: 54.0 ng/mL
